{"source": "patent US5527778A", "about": "“Method for selective opening of abnormal brain tissue capillaries” (priority 1995, dated 1996)", "key": {"[1]": {"parameters": "species or system rats", "conditions": "rat, in vivo", "method": "At infusion rates greater than 20 μg/kg/min the systemic blood pressure in the rats was reduced.\n(§1) [^14 C] AIB and [^14 C] dextran were used for quantitative autoradiographic examination of regional permeability. One week after tumor implantation, the rats were again anesthetized and a polyethylene (PE-10) catheter was inserted retrograde throughout the external carotid artery to the common carotid artery bifurcation ipsilateral to the tumor. The external carotid artery was then ligated. One femoral artery was cannulated to monitor systemic blood pressure and the other femoral artery was cannulated to withdraw arterial blood. Body temperature was maintained at […] and arterial blood gas levels, blood pressure, hematocrit were monitored. Animals with abnormal physiological parameters were eliminated. After rat preparation, bradykinin (10 μg/kg/min in saline) or saline as control was infused into the right carotid artery at a rate of 53.3 μ/min for 15 minutes. Five minutes after the start of the intracarotid infusion, 100 μCi/Kg of the tracer was injected as an intravenous bolus. A peristaltic withdrawal pump was used to withdraw femoral arterial blood at a constant rate of 0.083 ml/min immediately after injection of tracer for determination of serum radioactivity. Fifteen minutes after the start of intracarotid infusions, the animals were killed by decapitation and the brains were rapidly removed and frozen.\nOne week after tumor implantation, the rats were again anesthetized and a polyethylene (PE-10) catheter was inserted retrograde through the external carotid artery to the common carotid artery bifurcation ipsilateral to the tumor. The external carotid artery was then ligated. […] Body temperature was maintained at 37° C. and arterial blood gases, blood pressure, and hematocrit were monitored. […]\nRMP-7 infused at a rate greater than 1.0 μg/kg/min (dissolved in phosphate buffer, pH 7.4) reduced systemic blood pressure in rats when given either intravenously or into the carotid artery. […] Physiological parameters, which included arterial blood pH, PaO2, were also monitored."}, "RG-2 glioma [2]": {"system": "RG-2 glioma", "test": "Regional permeability (unidirectional transfer constant Ki) by quantitative autoradiography after intracarotid infusion", "assay_type": "in vivo, Wistar rats", "method": "An experimental brain tumor model was made using female Wistar rats and RG-2 glioma cells. The RG-2 glioma cell line was maintained in a monolayer culture in F12 medium with 10% calf serum. Female Wistar rats, each weighing 150 to 250 gm were anesthetized with intra peritoneal pentobarbital (30 mg/kg). Glial tumors were implanted into the right hemisphere by intracerebral injections of 1×10^5 RG-2 glioma cells in five μl of 1.2% methyl cellulose (F12 medium). One week after tumor implantation, the rats were used for the brain tumor model.\nThe rats were divided into two groups: a bradykinin group treated with intracarotid infusion of 10 […] of bradykinin or the control group treated with intracarotid infusion of saline. The effect of intracarotid infusion of bradykinin was compared to saline infusions by statistical analysis of the Ki values using ANOVA and Students T-Tests.\nas §1\nAutoradiography was conducted as follows: the frozen brains were mounted onto pedestals with M-1 embedding matrix, and 20 μm coronal sections were cut into a cryotome. The sections were thawmounted onto cover slips, and autoradiograms were generated by coexposing the sections on Kodak XAR-5 film with tissue-calibrated ^14 C standards for 2 weeks. The sequential section was stained with hematoxylin for correlation of areas of histologically verified tumor with autoradiograms. The regional radioactivities were measured in tumor, brain surrounding the tumor (BST; areas at around 2 mm distance from the border of the tumor), ipsilateral cortex to tumor (ipsi cortex), contralateral cortex (contra cortex), ipsilateral white matter (ipsi WM), contralateral WM (contra WM), ipsilateral basal ganglia (ipsi BGG), and contralateral BGG (contra BGG). Quantitative analysis of the regional radioactivity was performed using a computer (Macintosh II) with a scanner (UMAX UC630) and the software, Image 1.45 (NIH). […]\nThe frozen brains were mounted onto pedestals with M-1 embedding matrix, and 20 μm coronal sections were cut with a cryotome. The sections were thaw-mounted onto cover slips, and autoradiograms were generated by co-exposing the sections on Kodak XAR-5 film with tissue-calibrated ^14 C standards for 2 weeks. The sequential section was stained with hematoxylin for correlation of areas of histologically verified tumor with autoradiograms. The regional radioactivity was measured in tumor, brain surrounding the tumor (BST; areas within 2 mm distance from the border of the tumor), ipsilateral cortex to tumor, contralateral cortex, ipsilateral white matter (WM), contralateral WM, ipsilateral basal ganglia (BG), and contralateral BG. […]"}, "RG-2 glioma [3]": {"system": "RG-2 glioma", "test": "Blood volume in brain and tumor by graphic method using [14C] dextran", "assay_type": "in vivo, Wistar rats", "conditions": "intracarotid bradykinin infusion", "method": "The blood volume for the quantitative examination of permeability was calculated with a graphic method using [^14 C] dextran (MW 70,000). The blood volume in normal brain tissue and tumors were 4.5 and 9.15 μ/g, respectively (FIG. 1). The slopes were the unidirectional transfer constants, the Ki values (μl/g/min), in the two groups. […] The tumor blood volume was almost twice that of the normal brain tissue, but the brain and tumor blood volumes were not altered by intracarotid bradykinin infusion.\nRMP-7 (at 1.5 μg/kg) or vehicle (control) was infused into the right carotid artery at a volume rate of 0.8 ml over 15 minutes (i.e. 53 μ/min). In blood volume studies, 100 μCi/kg of [^14 C] dextran was injected as an intravenous bolus at either 5, 10, 14 or 14.5 minutes after the start of the intracarotid infusion to make the circulation time of dextran 10, 5, 1, 0.5 minutes, respectively. […] A peristaltic withdrawal pump was used to withdraw femoral arterial blood at a constant rate of 0.083 ml/min immediately after the injection of the tracer for the determination of serum radioactivity. […]\nThe blood volume for the quantitative examination of permeability was calculated with a graphic method using [^14 C] dextran. […] Ki was similar in these experiments whether calculated using the graphic method or the method described by Ohno (25) and Ziylan (26)."}, "RG-2 glioma [4]": {"system": "RG-2 glioma", "test": "Microscopic analysis with intravenously injected horseradish peroxidase (HRP)", "assay_type": "in vivo, Wistar rats", "method": "Microscopic analysis was performed using intravenously injected horseradish peroxidase (HRP) as described in (22). After rat preparation as previously described, bradykinin (10 μg/kg/min in saline) or saline as a control was injected into the fight carotid artery for 15 minutes. Five minutes after the start of the intracarotid infusion, 20 mg/100 g of horseradish peroxidase (HRP) was injected by an intravenous bolus. Ten minutes after the HRP injection, rats were perfused with a mixture of 2% glutaraldehyde and 2% formaldehyde in 0.1 sodium phosphate buffer solution at pH 7.4 through the heart. After fixation, the brains were removed and cut at 40 μm thickness on a vibratome. The sections were preincubated for 15 minutes at room temperature in the medium consisting of 10 ml 0.05 M-Tris-HCl buffer (pH 7.4), 3,3'-diaminobenzidine tetrahydrochloride and 0.02% hydrogen peroxide (Sigma). The sections were trimmed down to the areas of interests, post-fixed for 2 hours in 2% osmium tetroxide with 0.1M sodium phosphate, dehydrated, and embedded in plastic. Plastic sections 1 μm thick were observed under light microscopy."}, "RG-2 glioma [5]": {"system": "RG-2 glioma", "test": "Evans blue (EB-albumin) staining of tumor and brain after intracarotid infusion", "assay_type": "in vivo, Wistar rats", "conditions": "intracarotid bradykinin infusion; 2 ml/kg of 2% EB i.v.", "method": "After the intracarotid bradykinin infusion, the rat was perfused with 200 ml of phosphate buffer through the heart to wash out the remaining EB from the vessels. The brains were removed immediately and cut as coronal sections.\nSince EB binds to serum albumin (MW 67,000) in blood and distributes with albumin in vivo, EB staining in the tissue indicates the distribution of albumin (4). In order to observe the extravasated EB and not the EB remaining in the vessels in the brain, the blood from the brain was washed out by perfusing the rats with phosphate buffer from the heart.\nSix rats were used to examine whether RMP-7 could selectively deliver albumin to tumors. Evans blue (EB) was injected intravenously instead of radiolabeled tracers. After the preparation of rats, 2 ml/kg of 2% EB was injected intravenously instead of radiolabeled tracers. After the intracarotid RMP-7 (n=3) or vehicle (n=3) infusion, the rat was perfused with 200 ml of phosphate buffer through the heart to wash out the remaining EB from the vessels. The brains were removed immediately and cut as coronal sections."}, "[6]": {"system": "brain capillary endothelial cells", "conditions": "nanomolar concentrations of bradykinin; cited from earlier work"}, "[7]": {"conditions": "rat, in vivo; cited from earlier work"}, "normal brain capillary": {"system": "normal brain capillary", "conditions": "in vivo; cited from earlier work"}, "brain tumor capillaries": {"system": "brain tumor capillaries", "conditions": "intracarotid infusion of LTC4; cited from earlier work"}, "[8]": {"conditions": "tumor, intracarotid bradykinin 10 μg/kg/min vs saline"}}, "note": "Residues, ends and D or L forms follow the SMILES beside them."}
{"smiles": "C[C@H](CS)C(=O)N1CCC[C@H]1C(=O)O", "note": "[captopril]", "values": [{"measurement": "Systemic pressure when intravenous captopril infusion was used to enhance bradykinin effect", "setting": "[1]; iv", "result": "hypotension occurred"}]}
{"smiles": "NC(N)=NCCC[C@H](NC(=O)[C@H](Cc1ccccc1)NC(=O)[C@@H]1CCCN1C(=O)[C@H](CO)NC(=O)[C@H](Cc1ccccc1)NC(=O)CNC(=O)[C@@H]1CCCN1C(=O)[C@@H]1CCCN1C(=O)[C@@H](N)CCCN=C(N)N)C(=O)O", "note": "[bradykinin] (H-RPPGFSPFR-OH)", "values": [{"measurement": "Ki value of the brain surrounding tumor (BST) for [14C] AIB", "setting": "RG-2 glioma [2]; BST, 2 mm from tumor border, intracarotid bradykinin 10 μg/kg/min", "result": "3.50 ± 1.29", "unit": "µL/g/min"}, {"measurement": "Ki values of brain regions without tumor, treated vs control", "setting": "RG-2 glioma [2]; normal brain regions, intracarotid bradykinin 10 μg/kg/min", "result": "no significant differences"}, {"measurement": "Ki value of the tumors for [14C] AIB (MW 103)", "setting": "RG-2 glioma [2]; tumor, intracarotid bradykinin 10 μg/kg/min for 15 min", "result": "25.91 ± 6.78", "unit": "µL/g/min"}, {"measurement": "Ki value of the tumors for [14C] dextran (MW 70,000)", "setting": "RG-2 glioma [2]; tumor, intracarotid bradykinin 10 μg/kg/min for 15 min, mean±SD", "result": "17.84 ± 1.00", "unit": "µL/g/min"}, {"measurement": "Ki of tumors for [14C] AIB, fold higher than control group", "setting": "RG-2 glioma [2]; [8]", "result": 1.8, "unit": "fold"}, {"measurement": "Ki of tumors for [14C] dextran, fold higher than control group", "setting": "RG-2 glioma [2]; [8]", "result": 12, "unit": "fold"}, {"measurement": "Brain and tumor blood volumes, change by infusion", "setting": "RG-2 glioma [3]", "result": "not altered"}, {"measurement": "Effect on systemic blood pressure", "setting": "[1]", "result": "did not alter systemic blood pressure"}, {"measurement": "Infusion rate at which systemic blood pressure was reduced", "setting": "[1]", "result": "greater than 20 μg/kg/min"}, {"measurement": "HRP extravasation in normal brain", "setting": "RG-2 glioma [4]; normal brain, bradykinin 10 μg/kg/min intracarotid", "result": "no extravasation of HRP between cells"}, {"measurement": "HRP stain in tumor", "setting": "RG-2 glioma [4]; tumor, bradykinin 10 μg/kg/min intracarotid 15 min", "result": "well recognized in the extracellular space between tumor cells"}, {"measurement": "Evans blue staining", "setting": "RG-2 glioma [5]", "result": "well recognized in the tumor but not in the normal brain"}, {"measurement": "Stimulation of uptake of Lucifer yellow", "setting": "[6]", "result": 40, "unit": "%"}, {"measurement": "Degradation of bradykinin in rats, time", "setting": "[7]", "result": "several hours"}, {"measurement": "HRP around normal brain capillary at high dose", "setting": "normal brain capillary", "result": "caused intravasation of HRP around the normal brain capillary"}]}
{"smiles": "CCCCC/C=C\\C\\C=C/C=C/C=C/[C@@H](SC[C@H](NC(=O)CC[C@H](N)C(=O)O)C(=O)NCC(=O)O)[C@@H](O)CCCC(=O)O", "note": "[LTC4, leukotriene C4]", "values": [{"measurement": "Effect on capillary permeability", "setting": "brain tumor capillaries", "result": "selectively increases the permeability in brain tumor capillaries without affecting the permeability in normal brain capillaries"}]}
